Experimental data reported in US8426427B2, “Fused heterocyclic derivative, pharmaceutical composition comprising the derivative, and use of the composition for medical purposes” (Kissei Pharmaceutical Co., Ltd., priority 2007, dated 2013).

Experiments:
[1] = target: T1, human GnRHR1 (Homo sapiens, UniProt P30968); assay: Inhibitory effect for the change of calcium levels in GnRH-stimulated cells (hGnRHR1#1 HEK293 cells); format: cell-based; conditions: hGnRHR1#1 cells (HEK293 stably expressing human GnRHR1), 10 nM GnRH added, FLIPR calcium dye; read-out: IC50 (drug concentration at which 50% GnRH-stimulated intracellular calcium flux was inhibited)
T1 construct: expressed in transfected cells
T1 sequence (P30968 1-328): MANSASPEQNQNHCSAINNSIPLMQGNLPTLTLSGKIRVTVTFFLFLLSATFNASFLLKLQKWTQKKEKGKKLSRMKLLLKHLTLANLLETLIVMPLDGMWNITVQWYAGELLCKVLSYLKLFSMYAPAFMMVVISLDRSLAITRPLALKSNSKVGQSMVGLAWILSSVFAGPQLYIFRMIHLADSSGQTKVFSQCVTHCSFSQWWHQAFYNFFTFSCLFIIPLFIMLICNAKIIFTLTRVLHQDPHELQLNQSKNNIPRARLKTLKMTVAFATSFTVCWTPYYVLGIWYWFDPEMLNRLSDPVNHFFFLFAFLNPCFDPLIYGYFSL
Excerpt: 1) Cloning and Construction of the Vector Expressing Human GnRH Receptor1 (GnRHR1)
Using cDNA derived from human pituitary (BECTON DICKINSON) as a template, the DNA fragment coding 45 to 1115 by of human GnRHR1 (Accession No. L03380), which was reported by Kakar et al., was amplified by PCR method and inserted into the multi-cloning site of pcDNA3.1(+) (Invitrogen). The DNA sequence inserted was perfectly matched to the previously reported sequence.
2) Establishment of Cell Line Stably Expressing Human GnRH Receptor1 HEK293 Cells
The expression vector of human GnRHR1 gene, was digested by XhoI into a linear DNA. The linear DNA was transfected into HEK293 cells by means of lipofection (Lipofectamine2000: Invitrogen). Neomycin resistant cell lines were selected by culture in the medium containing G418 (Invitrogen) at 1 mg/mL, and then the change of calcium levels in GnRH-stimulated cells was measured by the method described below.
3) Assay of Inhibitory Effect for the Change of Calcium Levels in GnRH-Stimulated Cells
Antagonizing effect of compounds for human GnRHR1 was evaluated by depression of calcium levels in GnRH-stimulated cells. hGnRHR1#1 cells were seeded into a 96-well culture plate at a density of 1.5×10^5 cells/well and cultured for a day. […] Then, intracellular calcium levels were determined under the following condition by using FLEX STATION (Molecular Devices). […]

[2] = Assay for oral absorbability: plasma drug concentration after oral administration to rats; format: in vivo, SD rats; conditions: for C360 (plasma drug concentration at 360 minutes after administration) / Cmax: fasted male SD rats, oral 3 mg/kg, plasma; for availability by oral administration compared with Control compound 1 / sustainability of blood concentration 6 hours after oral administration compared with Control compound / Cmax: rat; for Cmax: LC-MS/MS, read-out: Cmax (maximum plasma drug concentration)
Experimental: Assay for Oral Absorbability
1) Preparation of the Samples for Measurement of the Drug Concentration after Oral Administration
As experimental animal, overnight fasted SD rats (Charles River, male, 7 weeks of age, 170-210 g) were used. Three mg of a test compound was dissolved by adding 0.2 mL of N,N-dimethylacetoamide, 9.794 mL of 0.5% aqueous methylcellulose solution and 0.006 mL of 2N NaOH, and then 0.3 mg/mL solution was prepared. The body weights of rats were measured, and the solution of the test compound was administered orally at the dose of 10 mL/kg (3 mg/kg). The oral administration was performed with gastric tube for rat and 2.5 mL syringe. The sampling times for collection of blood were 15, 30, 60, 120, 240 and 360 minutes after the oral administration. The blood was centrifuged, and the plasma was used as the sample for measurement of the drug concentration in blood.
2) Measurement of the Drug Concentration
To 0.025 mL of the plasma obtained in 1) described above, 0.1 mL of an adequate internal standard material was added according to the usual method, and then deproteinization was performed by adding 0.875 mL of acetonitrile. After centrifugation, 0.005 mL of the supernatant was injected into LC-MS/MS. The drug concentration in plasma was measured by LC-MS/MS method under the conditions as follows. To 0.05 mL of the blank plasma were added the internal standard material and various test compounds adequately according to the usual method, similar operating described above was done, and then the standard curves were prepared.
In the oral administration, the maximum plasma drug concentration (Cmax) and the plasma drug concentration at 360 minutes after administration (C360) are shown in Tables 8 and 9, respectively.

Row | Compound | IC50 [1] | C360 (plasma drug concentration at 360 minutes after administration) [2] | availability by oral administration compared with Control compound 1 [2] | sustainability of blood concentration 6 hours after oral administration compared with Control compound [2] | Cmax [2]
1 | COCCOc1ccc(F)c(F)c1CN(C)c1ccc(F)c(-n2c(=O)[nH]c3csc(C(=O)O)c3c2=O)c1 [Example 1, 5-Carboxy-3-(2-fluoro-5-{N-[2,3-difluoro-6-(2-methoxyethoxy)benzyl]-N-methylamino}-phenyl)thieno[3,4-d]pyrimidine-2,4(1H,3H)-dione] | 51 nM | 1010 ng/mL | more excellent availability than the Control compound 1 | more superior in sustainability than the Control compound | 17600 ng/mL
2 | CN(Cc1c(F)cccc1F)c1ccc(F)c(-n2c(=O)[nH]c3csc(C(=O)O)c3c2=O)c1 [Example 2] | 133 nM | 2170 ng/mL | more excellent availability than the Control compound 1 | more superior in sustainability than the Control compound | 14900 ng/mL
